In ChEMBL document CHEMBL4229518, “New β-lactam - Tetramic acid hybrids show promising antibacterial activities” (Bioorg Med Chem Lett, 2018):
≈ marks a conversion by molar mass, not a printed value.

Key:
Format in all cases: functional
[1] = system: Bacillus anthracis; experiment: Antimicrobial activity against Bacillus anthracis Sterne 34F2 after 18 to 20 hrs by microbroth dilution method
[2] = system: Enterococcus faecalis; experiment: Antimicrobial activity against Enterococcus faecalis ATCC 33186 after 18 to 20 hrs by microbroth dilution method
[3] = system: Acinetobacter baumannii; experiment: Antimicrobial activity against Acinetobacter baumannii ATCC 19606 after 18 to 20 hrs by microbroth dilution method; conditions: ATCC 19606 = CIP 70.34 = JCM 6841
[4] = system: Klebsiella pneumoniae; experiment: Antimicrobial activity against Klebsiella pneumoniae ATCC 33495 after 18 to 20 hrs by microbroth dilution method
[5] = system: Bacillus cereus; experiment: Antimicrobial activity against Bacillus cereus ATCC 14579 after 18 to 20 hrs by microbroth dilution method
[6] = system: Bacillus subtilis; experiment: Antimicrobial activity against Bacillus subtilis ATCC 23857 after 18 to 20 hrs by microbroth dilution method
[7] = system: Stenotrophomonas maltophilia; experiment: Antimicrobial activity against Stenotrophomonas maltophilia ATCC 700475 after 18 to 20 hrs by microbroth dilution method
[8] = system: Staphylococcus aureus; experiment: Antimicrobial activity against methicillin-susceptible Staphylococcus aureus ATCC 29213 after 18 to 20 hrs by microbroth dilution method
[9] = system: Staphylococcus aureus; experiment: Antimicrobial activity against methicillin-susceptible Staphylococcus aureus NRS70 after 18 to 20 hrs by microbroth dilution method
[10] = system: Escherichia coli; experiment: Antimicrobial activity against tolC deficient Escherichia coli JW5503-1 after 18 to 20 hrs by microbroth dilution method
[11] = system: Pseudomonas aeruginosa; experiment: Antimicrobial activity against Pseudomonas aeruginosa PAO1 after 18 to 20 hrs by microbroth dilution method
[12] = system: Streptococcus pneumoniae; experiment: Antimicrobial activity against Streptococcus pneumoniae R6 after 18 to 20 hrs by microbroth dilution method
[13] = system: Proteus mirabilis; experiment: Antimicrobial activity against Proteus mirabilis ATCC 25933 after 18 to 20 hrs by microbroth dilution method
[14] = system: Enterobacter cloacae; experiment: Antimicrobial activity against Enterobacter cloacae ATCC 13047 after 18 to 20 hrs by microbroth dilution method; conditions: subsp. cloacae ATCC 13047
[15] = system: Streptococcus pyogenes; experiment: Antimicrobial activity against Streptococcus pyogenes ATCC 700294 after 18 to 20 hrs by microbroth dilution method; conditions: M1 GAS
[16] = system: Escherichia coli; experiment: Antimicrobial activity against Escherichia coli BW25113 after 18 to 20 hrs by microbroth dilution method
[17] = system: Escherichia coli; experiment: Antimicrobial activity against Escherichia coli isolate SJ 4 after 18 to 20 hrs by microbroth dilution method
[18] = system: Escherichia coli; experiment: Antimicrobial activity against Escherichia coli isolate SJ 1 after 18 to 20 hrs by microbroth dilution method
[19] = system: Klebsiella pneumoniae; experiment: Antimicrobial activity against Klebsiella pneumoniae isolate SJ 4 after 18 to 20 hrs by microbroth dilution method
[20] = system: Escherichia coli; experiment: Antimicrobial activity against Escherichia coli ATCC 25922 after 18 to 20 hrs by microbroth dilution method
[21] = system: Escherichia coli; experiment: Antimicrobial activity against Escherichia coli isolate SJ 2 after 18 to 20 hrs by microbroth dilution method
[22] = system: Klebsiella pneumoniae; experiment: Antimicrobial activity against Klebsiella pneumoniae isolate SJ 3 after 18 to 20 hrs by microbroth dilution method
[23] = system: Escherichia coli; experiment: Antimicrobial activity against Escherichia coli isolate SJ 6 after 18 to 20 hrs by microbroth dilution method
[24] = system: Escherichia coli; experiment: Antimicrobial activity against Escherichia coli isolate SJ 3 after 18 to 20 hrs by microbroth dilution method
[25] = system: Klebsiella pneumoniae; experiment: Antimicrobial activity against Klebsiella pneumoniae isolate SJ 2 after 18 to 20 hrs by microbroth dilution method
[26] = system: Klebsiella pneumoniae; experiment: Antimicrobial activity against Klebsiella pneumoniae isolate SJ 5 after 18 to 20 hrs by microbroth dilution method
[27] = system: Escherichia coli; experiment: Antimicrobial activity against Escherichia coli ATCC 35218 expressing TEM-1 beta lactamases after 18 to 20 hrs by microbroth dilution method
[28] = system: Klebsiella pneumoniae; experiment: Antimicrobial activity against Klebsiella pneumoniae isolate SJ 1 after 18 to 20 hrs by microbroth dilution method
[29] = system: Escherichia coli; experiment: Antimicrobial activity against Escherichia coli isolate SJ 5 after 18 to 20 hrs by microbroth dilution method

CC1=C(C(=O)O)N2C(=O)[C@@H](NC(=O)CCNC(=O)C3=C(O)C(CC(C)C)NC3=O)[C@H]2SC1 (stereo partly drawn)
MIC [1]: 200 µg/mL (≈ 429 µM) | MIC [2]: > 200 µg/mL | MIC [3]: > 200 µg/mL | MIC [4]: > 200 µg/mL | MIC [5]: > 200 µg/mL | MIC [6]: 100 µg/mL (≈ 214 µM) | MIC [7]: > 200 µg/mL | MIC [8]: 50 µg/mL (≈ 107 µM) | MIC [9]: 100 µg/mL (≈ 214 µM) | MIC [10]: > 200 µg/mL | MIC [11]: > 200 µg/mL | MIC [12]: 200 µg/mL (≈ 429 µM) | MIC [13]: > 200 µg/mL | MIC [14]: > 200 µg/mL | MIC [15]: > 200 µg/mL | MIC [16]: > 200 µg/mL

CC(C)CC1NC(=O)C(C(=O)NCCC(=O)N[C@@H](C(=O)N[C@@H]2C(=O)N3[C@@H]2SC(C)(C)[C@@H]3C(=O)O)c2ccccc2)=C1O (stereo partly drawn)
MIC [1]: 3.13 µg/mL (≈ 5.2 µM) | MIC [2]: 50 µg/mL (≈ 83.1 µM) | MIC [3]: 200 µg/mL (≈ 332 µM) | MIC [4]: 200 µg/mL (≈ 332 µM) | MIC [5]: 25 µg/mL (≈ 41.6 µM) | MIC [6]: 3.13 µg/mL (≈ 5.2 µM) | MIC [7]: 50 µg/mL (≈ 83.1 µM) | MIC [8]: 0.78 µg/mL (≈ 1.3 µM) | MIC [9]: 50 µg/mL (≈ 83.1 µM) | MIC [10]: 25 µg/mL (≈ 41.6 µM) | MIC [11]: 25 µg/mL (≈ 41.6 µM) | MIC [12]: < 0.2 µg/mL | MIC [13]: 6.25 µg/mL (≈ 10.4 µM) | MIC [14]: > 200 µg/mL | MIC [15]: 0.78 µg/mL (≈ 1.3 µM) | MIC [16]: 50 µg/mL (≈ 83.1 µM)

CC1=C(C(=O)O)N2C(=O)[C@@H](NC(=O)[C@H](NC(=O)CCNC(=O)C3=C(O)C(CC(C)C)NC3=O)c3ccccc3)[C@H]2SC1 (stereo partly drawn)
MIC [1]: 100 µg/mL (≈ 167 µM) | MIC [2]: > 200 µg/mL | MIC [3]: > 200 µg/mL | MIC [4]: 200 µg/mL (≈ 334 µM) | MIC [5]: > 200 µg/mL | MIC [6]: 6.25 µg/mL (≈ 10.4 µM) | MIC [7]: > 200 µg/mL | MIC [8]: 3.13 µg/mL (≈ 5.22 µM) | MIC [9]: 50 µg/mL (≈ 83.4 µM) | MIC [10]: 200 µg/mL (≈ 334 µM) | MIC [11]: > 200 µg/mL | MIC [12]: 12.5 µg/mL (≈ 20.8 µM) | MIC [13]: 50 µg/mL (≈ 83.4 µM) | MIC [14]: > 200 µg/mL | MIC [15]: 12.5 µg/mL (≈ 20.8 µM) | MIC [16]: 200 µg/mL (≈ 334 µM)

CC(C)CC1NC(=O)C(C(=O)NCCCCCC(=O)N[C@@H](C(=O)N[C@@H]2C(=O)N3[C@@H]2SC(C)(C)[C@@H]3C(=O)O)c2ccccc2)=C1O (stereo partly drawn)
MIC [1]: 3.13 µg/mL (≈ 4.86 µM) | MIC [2]: 25 µg/mL (≈ 38.8 µM) | MIC [3]: 100 µg/mL (≈ 155 µM) | MIC [4]: > 200 µg/mL | MIC [5]: 50 µg/mL (≈ 77.7 µM) | MIC [6]: 3.13 µg/mL (≈ 4.86 µM) | MIC [7]: 25 µg/mL (≈ 38.8 µM) | MIC [8]: 0.78 µg/mL (≈ 1.21 µM) | MIC [9]: 50 µg/mL (≈ 77.7 µM) | MIC [10]: 12.5 µg/mL (≈ 19.4 µM) | MIC [11]: 50 µg/mL (≈ 77.7 µM) | MIC [12]: < 0.2 µg/mL | MIC [13]: 6.25 µg/mL (≈ 9.71 µM) | MIC [14]: > 200 µg/mL | MIC [15]: < 0.2 µg/mL | MIC [16]: 50 µg/mL (≈ 77.7 µM)

CC1(C)S[C@@H]2[C@H](NC(=O)[C@H](N)c3ccccc3)C(=O)N2[C@H]1C(=O)O [AMPICILLIN]
MIC [17]: > 200 µg/mL | MIC [18]: > 200 µg/mL | MIC [1]: < 0.2 µg/mL | MIC [2]: 0.78 µg/mL (≈ 2.23 µM) | MIC [19]: 100 µg/mL (≈ 286 µM) | MIC [20]: 3.13 µg/mL (≈ 8.96 µM) | MIC [21]: > 200 µg/mL | MIC [3]: 50 µg/mL (≈ 143 µM) | MIC [4]: 100 µg/mL (≈ 286 µM) | MIC [5]: 25 µg/mL (≈ 71.5 µM) | MIC [6]: < 0.2 µg/mL | MIC [7]: 6.25 µg/mL (≈ 17.9 µM) | MIC [22]: 100 µg/mL (≈ 286 µM) | MIC [23]: > 200 µg/mL | MIC [24]: > 200 µg/mL | MIC [8]: < 0.2 µg/mL | MIC [9]: 25 µg/mL (≈ 71.5 µM) | MIC [10]: 1.56 µg/mL (≈ 4.46 µM) | MIC [11]: 200 µg/mL (≈ 572 µM) | MIC [12]: < 0.2 µg/mL | MIC [13]: < 0.2 µg/mL | MIC [25]: 25 µg/mL (≈ 71.5 µM) | MIC [14]: > 200 µg/mL | MIC [26]: > 200 µg/mL | MIC [27]: > 200 µg/mL | MIC [28]: > 200 µg/mL | MIC [29]: > 200 µg/mL | MIC [15]: < 0.2 µg/mL | MIC [16]: 3.13 µg/mL (≈ 8.96 µM)

CC(C)CC1NC(=O)C(C(=O)NCCCC(=O)N[C@@H](C(=O)N[C@@H]2C(=O)N3[C@@H]2SC(C)(C)[C@@H]3C(=O)O)c2ccccc2)=C1O (stereo partly drawn)
MIC [1]: 3.13 µg/mL (≈ 5.08 µM) | MIC [2]: 25 µg/mL (≈ 40.6 µM) | MIC [3]: 100 µg/mL (≈ 162 µM) | MIC [4]: > 200 µg/mL | MIC [5]: 25 µg/mL (≈ 40.6 µM) | MIC [6]: 3.13 µg/mL (≈ 5.08 µM) | MIC [7]: 25 µg/mL (≈ 40.6 µM) | MIC [8]: 0.78 µg/mL (≈ 1.27 µM) | MIC [9]: 50 µg/mL (≈ 81.2 µM) | MIC [10]: 12.5 µg/mL (≈ 20.3 µM) | MIC [11]: 50 µg/mL (≈ 81.2 µM) | MIC [12]: < 0.2 µg/mL | MIC [13]: 1.56 µg/mL (≈ 2.53 µM) | MIC [14]: > 200 µg/mL | MIC [15]: 0.39 µg/mL (≈ 0.633 µM) | MIC [16]: 25 µg/mL (≈ 40.6 µM)

CO[C@@]1(NC(=O)CSCC#N)C(=O)N2C(C(=O)O)=C(CSc3nnnn3C)CS[C@@H]21 [CEFMETAZOLE]
MIC [17]: 0.78 µg/mL (≈ 1.65 µM) | MIC [18]: 0.39 µg/mL (≈ 0.827 µM) | MIC [19]: 0.78 µg/mL (≈ 1.65 µM) | MIC [20]: 0.78 µg/mL (≈ 1.65 µM) | MIC [21]: 0.78 µg/mL (≈ 1.65 µM) | MIC [3]: 25 µg/mL (≈ 53 µM) | MIC [4]: 3.13 µg/mL (≈ 6.64 µM) | MIC [22]: 0.39 µg/mL (≈ 0.827 µM) | MIC [23]: 12.5 µg/mL (≈ 26.5 µM) | MIC [24]: 0.78 µg/mL (≈ 1.65 µM) | MIC [10]: 1.56 µg/mL (≈ 3.31 µM) | MIC [11]: > 200 µg/mL | MIC [13]: 0.39 µg/mL (≈ 0.827 µM) | MIC [25]: 0.39 µg/mL (≈ 0.827 µM) | MIC [26]: 1.56 µg/mL (≈ 3.31 µM) | MIC [27]: 0.39 µg/mL (≈ 0.827 µM) | MIC [28]: 0.39 µg/mL (≈ 0.827 µM) | MIC [29]: 6.25 µg/mL (≈ 13.3 µM) | MIC [16]: 0.39 µg/mL (≈ 0.827 µM)
